From patent US6441032B1, “Alpha-(4-Ethoxyphenyl)-N-tert-butylnitrone, pharmaceutical compositions and their medical use” (Centaur Pharmaceuticals, Inc., priority 1997, dated 2002) come the findings set out here.

Experiment [1] deals with Lewis rats with MBP-induced EAE. As to the kind of experiment: Prevention of MBP-induced experimental allergic encephalomyelitis. Format: in vivo, Lewis rat. The conditions noted are these: 100 mg/kg b.i.d. oral gavage, day 3 to day 16 post-inoculation. The procedure:
Female, Lewis rats of 8 weeks of age (180-250 g) were weighed and then given two intradermal injections (0.1 mL each) of 0.4 mg of M. tuberculin in 0.1 mL incomplete Freunds adjuvant and […] of myelin basic protein in 0.1 mL of saline into the base of the tail. Animals were weighed daily and given a clinical score beginning on Day 8, post inoculation, according to the following criteria:
2.5=Hind limb paralysis and front limb weakness
3.0=Hind and front limb paralysis
4.0=Moribund state or death
On day 3, post-inoculation animals were administered b.i.d either a test compound (100 mg/kg) or 1% methylcellulose vehicle by oral gavage up to and including day 16.

The test system of experiment [2] is Male Sprague-Dawley rats injected with Aβ(25-35) and ibotenate. The experiment can be described thus: Reduction of cognitive defects due to Aβ-peptide/ibotenate (Morris water maze). Format: in vivo, Sprague-Dawley rat. The conditions noted are these: 10 mgl/k by oral gavage daily. The text has this: The procedures employed in this example are similar to those described in Dornan et al. NeuroReport 5, 165-168 (1993). Male Sprague-Dawley rats (200-300 g) were weighed and given 10 mgl/k of α-(2-ethoxyphenyl)-N-tert-butylnitrone or 1% methylcellulose by oral gavage. One hour later, the rats were stereotaxically injected into the CA1 region of their hippocampus with 8 nmol of Aβ(25-35) and 6 nmol of ibotenate per side (coordinates from bregma −3.6=AP, ±2.2=ML, −3.0=DV from the top of the dura). Controls were injected with PBS (pH 7.4). All injections were 1.5 μL in volume. The animals receiving PBS were orally dosed with 1% methylcellulose. Oral dosing continued daily until the end of the Morris water maze testing.
Nine to eleven days following injection, animals were tested in a Morris water maze task to measure spatial memory and learning. Animals were given three days of testing with four to six trials per day. The last trial on the fourth day was a probe trial where the platform was removed and time in quadrant and annulae crossings were determined. Following the behavioral testing, animals were perfused with 10% neutral formalin. The brain was post-fixed for 1 week in 10% formalin and then sliced for histological evaluation. Image analysis of cresyl violet staining was used to compare the neuronal loss (lesion volume) in the hippocampus between groups.

Another experiment relates to MRL/MpJ Fas^lpr mice. As to the kind of experiment: Reduction of cognitive deficits in autoimmune mice (T-maze task). Format: in vivo, mouse. The conditions noted are these: 100 mg/kg oral gavage daily for 8 to 9 weeks, versus untreated mutant mice. The procedure: MRL/MpJfas^lPr (“mutant mice” or “Fas^lPr”) strains of mice have been described as useful models of Lupus due to their autoimmune lymphoproliferative pathology. In particular, the mutant mice show a cognitive deficit at approximately four months of age, which is not observed at two months of age. See, for example, Forster et al., 1988. Behav. Neural Biology, 49, 139-151.
In the experiment, male MRL/MpJ Fas^lpr and normal MRL/MpJ++mice of 8 weeks of age were weighed and administered 100 mg/kg of the test compound (either α-(2-ethoxyphenyl)-N-tert-butylnitrone or α-(4-ethoxyphenyl)-N-cyclohexylnitrone) or 1% methylcellulose vehicle by oral gavage daily for 8 to 9 weeks. At 4 months of age, the mice were tested for avoidance, discrimination, session criteria and acquisition in a one day T-maze task with a maximum of 25 trials. Criteria was met with four of five trials correct with the last two correct trials being consecutive in avoidance and discrimination.

For the molecule `CCOc1cc(C=[N+]([O-])C(C)(C)C)ccc1OC` [Example 3, α-(3-Ethoxy-4-methoxyphenyl)-N-tert-butylnitrone], in experiment [1], the “CNS inflammatory deficit in acute EAE animals” value (“CNS inflammatory deficit” below) was “reduced the CNS inflammatory deficit”.
On the same count and under the same terms, next, `CCOc1ccc(C=[N+]([O-])C(C)(C)C)cc1` [Example 4, α-(4-Ethoxyphenyl)-N-tert-butylnitrone]: “did not significantly reduce the CNS inflammatory deficit”; `COc1cc(C=[N+]([O-])C(C)(C)C)ccc1OCc1ccccc1` [Example 5, α-(4-Benzyloxy-3-methoxyphenyl)-N-tert-butylnitrone]: “did not significantly reduce the CNS inflammatory deficit”.
For `CCOc1ccccc1C=[N+]([O-])C(C)(C)C` [Example 7, α-(2-Ethoxyphenyl)-N-tert-butylnitrone], the “Aβ peptide/ibotenate-induced learning deficit” value in experiment [2] is “reduced the Aβ peptide/ibotenate-induced learning deficit”. For the same molecule, the “CNS inflammatory deficit” value in experiment [1] is “did not significantly reduce the CNS inflammatory deficit”. Further, in the experiment with MRL/MpJ Fas^lpr mice, the “acquisition in T-maze task” value is listed as “reduced acquisition values” and the “avoidance in T-maze task” value is “acquired avoidance skills earlier”.
For `CCCC[N+]([O-])=Cc1ccc(OCC)cc1` [Example 10, α-(4-ethoxyphenyl)-N-n-butylnitrone], in experiment [1], the “CNS inflammatory deficit” value was “did not significantly reduce the CNS inflammatory deficit”.
In the case of `CCOc1ccc(C=[N+]([O-])C2CCCCC2)cc1` [Example 11, α-(4-Ethoxyphenyl)-N-cyclohexylnitrone], the “CNS inflammatory deficit” value in experiment [1] is “reduced the CNS inflammatory deficit”. Further, in the experiment with MRL/MpJ Fas^lpr mice, the “acquisition in T-maze task” value is listed as “reduced acquisition values” and the “avoidance in T-maze task” value is “acquired avoidance skills earlier”.
Turning to `CCOc1ccc(C=[N+]([O-])C2CCCCC2)cc1OC` [Example 15, α-(4-Ethoxy-3-methoxyphenyl)-N-cyclohexylnitrone], the “CNS inflammatory deficit” value in experiment [1] is listed as “did not significantly reduce the CNS inflammatory deficit”.
Still for that read-out and setting: next, `CCOc1cc(C=[N+]([O-])C(C)C)ccc1OC` [Example 17, α-(3-Ethoxy-4-methoxyphenyl)-N-isopropylnitrone]: “reduced the CNS inflammatory deficit”; `CCCCCCOc1ccc(C=[N+]([O-])C2CCCCC2)cc1OCC` [Example 22, α-(3-Ethoxy-4hexyloxyphenyl)-N-cyclohexylnitrone]: “reduced the CNS inflammatory deficit”.
Same read-out and setting: next, `CCCCCCCCOc1ccc(C=[N+]([O-])C(C)(C)C)c(F)c1` [Example 29, α-(2-Fluoro-4-octyloxyphenyl)-N-tert-butylnitrone]: “did not significantly reduce the CNS inflammatory deficit”.
Consider `CC(C)(C)[N+]([O-])=Cc1ccc(OCc2ccccc2)cc1` [Example 41, α-(4-Benzyloxyphenyl)-N-tert-butylnitrone], for which the “CNS inflammatory deficit” value in experiment [1] is on record as “reduced the CNS inflammatory deficit”.
On to `[O-][N+](=Cc1ccc(OCc2ccccc2)cc1)C1CCCC1` [Example 42, α-(4-Benzyloxyphenyl)-N-cyclopentylnitrone], for which the “CNS inflammatory deficit” value in experiment [1] is “reduced the CNS inflammatory deficit”.
For the molecule `CCOc1cc(C=[N+]([O-])C(C)(C)CC(C)(C)C)ccc1OC` [Example 45, α-(3-Ethoxy-4-methoxyphenyl)-N-tert-octylnitrone], the “CNS inflammatory deficit” value in experiment [1] was “reduced the CNS inflammatory deficit”.
